According to patent US6608083B1, “Quinoline derivatives(2)” (SmithKline Beecham Farmaceutici S.p.A, priority 1994, dated 2003):
Counter-ions that a name gives are not always drawn.

system: not given; assay: not given

Compound	melting point
COC(=O)C(NC(=O)c1cc(-c2ccccc2)nc2ccccc12)C1=CCC=CC1 (stereo not shown) [Example 16]	120 to 122 °C
C[C@H](O)[C@H](NC(=O)c1cc(-c2ccccc2)nc2ccccc12)c1ccccc1 [Example 17, (R,S)-N-[α-(1-hydroxyethyl)benzyl]-2-phenylquinoline-4-carboxamide]	204 to 205 °C
CCC(NC(=O)c1cc(-c2ccccc2)nc2ccccc12)c1ccc(Cl)c(Cl)c1 (stereo not shown) [Example 27]	193 to 194 °C
O=C(NC(CO)c1ccccc1)c1cc(-c2ccccc2)nc2ccccc12 (stereo not shown) [Example 28]	117 to 119 °C
CCCC(NC(=O)c1cc(-c2ccccc2)nc2ccccc12)c1ccccc1 (stereo not shown) [Example 37]	149 to 150 °C
CCC(NC(=O)c1c(N2C(=O)c3ccccc3C2=O)c(-c2ccccc2)nc2ccccc12)c1ccccc1 (stereo not shown) [Example 39]	201 to 202 °C
CCC(NC(=O)c1c(C)c(-c2ccc(Br)cc2)nc2ccc(Br)cc12)c1ccccc1 (stereo not shown) [Example 41]	230 to 231 °C
CCC(NC(=O)c1c(C)c(-c2ccccc2)nc2ccc(Br)cc12)c1ccccc1 (stereo not shown) [Example 42]	179 to 180 °C
O=C(NC(Cc1ccccc1)c1ccccc1)c1cc(-c2ccccc2)nc2ccccc12 (stereo not shown) [Example 45]	194 to 196 °C
O=C(NC(c1ccccc1)C(F)(F)F)c1cc(-c2ccccc2)nc2ccccc12 (stereo not shown) [Example 46]	180 to 181 °C
CCC(NC(=O)c1cc(-c2ccccc2)nc2ccccc12)c1ccc(Cl)cc1 (stereo not shown) [Example 49]	177 to 178 °C
COC(=O)C(NC(=O)c1cc(-c2ccsc2)nc2ccccc12)c1ccccc1 (stereo not shown) [Example 51]	169 to 171 °C
COC(=O)C(NC(=O)c1cc(-c2ccc[nH]2)nc2ccccc12)c1ccccc1 (stereo not shown) [Example 53]	181 to 182 °C
COC(=O)C(NC(=O)c1cc(-c2nccs2)nc2ccccc12)c1ccccc1 (stereo not shown) [Example 54]	209 to 211 °C
CCCCC(NC(=O)c1cc(-c2ccccc2)nc2ccccc12)c1ccccc1 (stereo not shown) [Example 56]	155 to 156 °C
O=C(NC1(c2ccccc2)CCCC1)c1cc(-c2ccccc2)nc2ccccc12 [Example 61]	164 to 165 °C
COC(=O)C(NC(=O)c1cc(-c2ccc3c(c2)OCO3)nc2ccccc12)c1ccccc1 (stereo not shown) [Example 63]	186 to 187 °C
CC(C)(NC(=O)c1cc(-c2ccccc2)nc2ccccc12)c1ccccc1 [Example 64]	173 to 174 °C
CCC(NC(=O)c1cc(-c2ccccc2)nc2ccccc12)c1ccc(C)cc1 (stereo not shown) [Example 65]	160 to 162 °C
COC(=O)C(NC(=O)c1cc(-c2cc[nH]c2)nc2ccccc12)c1ccccc1 (stereo not shown) [Example 66]	202 to 204 °C
COC(=O)C(NC(=O)c1cc(-c2ccc(Cl)c(Cl)c2)nc2ccccc12)c1ccccc1 (stereo not shown) [Example 67]	164 to 165 °C
NCC(NC(=O)c1cc(-c2ccccc2)nc2ccccc12)c1ccccc1 (stereo not shown) [Example 68]	139 to 141 °C
CC(C)C(NC(=O)c1cc(-c2ccccc2)nc2ccccc12)c1ccccc1 (stereo not shown) [Example 72]	165 to 166 °C
COC(=O)C(NC(=O)c1cc(C2CCCCC2)nc2ccccc12)c1ccccc1 (stereo not shown) [Example 76]	151 to 153 °C
O=C(NC(c1ccccc1)c1ccccc1)c1cc(-c2ccccc2)nc2ccccc12 [Example 84]	182 to 184 °C
CN(C)CC(NC(=O)c1cc(-c2ccccc2)nc2ccccc12)c1ccccc1 (stereo not shown) [Example 88]	133 to 135 °C
O=C(NC(C(=O)N1CCCC1)c1ccccc1)c1cc(-c2ccccc2)nc2ccccc12 (stereo not shown) [Example 91]	199 to 200 °C

More lines, now with the values ahead:

melting point	Compound
140 °C (dec.)	COC(=O)[C@H](NC(=O)c1cc(-c2ccccc2)nc2ccccc12)c1ccc(O)cc1.Cl
203 to 205 °C	O=C(NC(C(=O)O)c1ccccc1)c1cc(-c2ccccc2)nc2ccccc12 (stereo not shown) (as salt: HCl) [Example 92]
163 to 165 °C	CCC(NC(=O)c1c(OC)c(-c2ccccc2)nc2ccccc12)c1ccccc1 (stereo not shown) [Example 18]
147 to 150 °C	CCCCc1c(-c2ccccc2)nc2ccccc2c1C(=O)NC(CC)c1ccccc1 (stereo not shown) [Example 19]
186 to 188 °C	COC(=O)C(NC(=O)c1c2c(nc3ccccc13)-c1ccccc1CCC2)c1ccccc1 (stereo not shown) [Example 20]
124 to 125 °C	COC(=O)C(NC(=O)c1cc(-c2ccccc2OC)nc2ccccc12)c1ccccc1 (stereo not shown) [Example 24]
198 to 200 °C	CCC(NC(=O)c1c(-c2ccccc2)c(-c2ccccc2)nc2ccccc12)c1ccccc1 (stereo not shown) [Example 25]
146 to 147 °C	COC(=O)C(NC(=O)c1cc(-c2ccccc2F)nc2ccccc12)c1ccccc1 (stereo not shown) [Example 26]
180 to 181 °C	COC(=O)C(NC(=O)c1c(C)c(-c2ccccc2)nc2ccccc12)c1ccccc1 (stereo not shown) [Example 30]
180 to 183 °C	COC(=O)C(NC(=O)c1cc(-c2ccccc2)nc2cc(Cl)ccc12)c1ccccc1 (stereo not shown) [Example 32]
179 to 181 °C	COC(=O)C(NC(=O)c1cc(-c2ccccc2)nc2ccc(C)cc12)c1ccccc1 (stereo not shown) [Example 33]
144 to 145 °C	COCC(NC(=O)c1cc(-c2ccccc2)nc2ccccc12)c1ccccc1 (stereo not shown) [Example 34]
197 to 199 °C	COC(=O)C(NC(=O)c1cc(-c2ccccc2)nc2ccc(Cl)cc12)c1ccccc1 (stereo not shown) [Example 35]
156 to 157 °C	CCc1c(-c2ccccc2)nc2ccccc2c1C(=O)NC(C(=O)OC)c1ccccc1 (stereo not shown) [Example 36]
158 to 159 °C	CCc1c(-c2ccccc2)nc2ccccc2c1C(=O)NC(CC)c1ccccc1 (stereo not shown) [Example 38]
149 to 151 °C	CCCc1c(-c2ccccc2)nc2ccccc2c1C(=O)NC(CC)c1ccccc1 (stereo not shown) [Example 40]
209 to 211 °C	COC(=O)C(NC(=O)c1cc(-c2ccccc2)nc2ccc(OC)cc12)c1ccccc1 (stereo not shown) [Example 43]
240 to 241 °C	COC(=O)C(NC(=O)c1cc(-c2cc3ccccc3o2)nc2ccccc12)c1ccccc1 (stereo not shown) [Example 44]
132 to 134 °C	CCC(NC(=O)c1c(OC)c(-c2ccccc2)nc2ccccc12)c1ccccc1 (stereo not shown) [Example 47]

melting point	Compound
118 to 120 °C	CCc1c(-c2ccccc2)nc2ccccc2c1C(=O)NC(CC)c1ccccc1 (stereo not shown) [Example 48]
128 to 129 °C	COC(=O)C(c1ccccc1)N(C)C(=O)c1cc(-c2ccccc2)nc2ccccc12 (stereo not shown) [Example 50]
217 to 219 °C	COC(=O)C(NC(=O)c1c2c(nc3ccccc13)-c1ccccc1CC2)c1ccccc1 (stereo not shown) [Example 52]
172 to 174 °C	COC(=O)C(NC(=O)c1cc(-c2ccc(C)cc2)nc2ccccc12)c1ccccc1 (stereo not shown) [Example 57]
180 to 182 °C	COC(=O)C(NC(=O)c1cc(-c2ccccc2C)nc2ccccc12)c1ccccc1 (stereo not shown) [Example 59]
182 to 183 °C	COC(=O)C(NC(=O)c1cc(-c2ccc(OC)cc2)nc2ccccc12)c1ccccc1 (stereo not shown) [Example 60]
226 to 227 °C	COC(=O)C(NC(=O)c1cc(-c2ccc(O)cc2)nc2ccccc12)c1ccccc1 (stereo not shown) [Example 62]
137 to 139 °C	CCC(NC(=O)c1c(Cl)c(-c2ccccc2)nc2ccccc12)c1ccccc1 (stereo not shown) [Example 70]
119 to 122 °C	CCC(NC(=O)c1c(Br)c(-c2ccccc2)nc2ccccc12)c1ccccc1 (stereo not shown) [Example 71]
174 to 176 °C	COC(=O)C(NC(=O)c1cc(-c2ccccc2)nc2ccc(F)cc12)c1ccccc1 (stereo not shown) [Example 75]
161 to 163 °C	COC(=O)C(NC(=O)c1cc(-c2cccc(Cl)c2)nc2ccccc12)c1ccccc1 (stereo not shown) [Example 77]
175 to 178 °C	COC(=O)C(NC(=O)c1cc(-c2ccccc2Cl)nc2ccccc12)c1ccccc1 (stereo not shown) [Example 78]
193 to 194 °C	COC(=O)C(NC(=O)c1cc(-c2ccccc2)nc2c(OC(C)=O)cccc12)c1ccccc1 (stereo not shown) [Example 80]
178 to 180 °C	COC(=O)C(NC(=O)c1cc(-c2ccccc2)nc2c(O)cccc12)c1ccccc1 (stereo not shown) [Example 81]
142 to 143 °C	COC(=O)C(NC(=O)c1cc(-c2ccc(Cl)cc2Cl)nc2ccccc12)c1ccccc1 (stereo not shown) [Example 82]
125 to 127 °C	COC(=O)C(NC(=O)c1c(O)c(-c2ccccc2)nc2ccccc12)c1ccccc1 (stereo not shown) [Example 87]
219 to 221 °C	CN(C)C(=O)C(NC(=O)c1cc(-c2ccccc2)nc2ccccc12)c1ccccc1 (stereo not shown) [Example 89]
237 to 238 °C	NC(=O)C(NC(=O)c1cc(-c2ccccc2)nc2ccccc12)c1ccccc1 (stereo not shown) [Example 90]

target: T1, NK3 receptor (Cavia porcellus, UniProt P30098); assay: Binding: displacement of [3H]-Senktide / [125I]-[Me-Phe7]-NKB, guinea-pig cortex membranes
T1 sequence (P30098 1-440): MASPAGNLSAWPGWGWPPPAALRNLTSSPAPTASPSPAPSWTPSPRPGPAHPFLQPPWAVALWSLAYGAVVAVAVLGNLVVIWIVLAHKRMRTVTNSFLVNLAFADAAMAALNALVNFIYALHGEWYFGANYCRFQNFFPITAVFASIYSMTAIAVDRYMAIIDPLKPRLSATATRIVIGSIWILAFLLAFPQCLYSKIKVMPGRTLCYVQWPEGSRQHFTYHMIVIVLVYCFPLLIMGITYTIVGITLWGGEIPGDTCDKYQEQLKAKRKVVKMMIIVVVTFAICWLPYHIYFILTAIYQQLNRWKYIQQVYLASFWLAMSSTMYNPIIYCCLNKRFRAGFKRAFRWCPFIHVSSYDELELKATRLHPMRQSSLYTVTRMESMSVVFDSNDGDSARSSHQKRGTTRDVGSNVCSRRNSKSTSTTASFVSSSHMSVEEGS
Description: The activity of the compounds of the present invention, as NK3 ligands, is determined by their ability to inhibit the binding of the radiolabelled NK3 ligands, [^125I]-[Me-Phe^7]-NKB or [^3H]-Senktide, to guinea-pig and human NK3 receptors (Renzetti et al, 1991, Neuropeptide, 18, 104-114; Buell et al, 1992, FEBS, 299(1), 90-95; Chung et al, 1994, Biochem. Biophys. Res. Commun., 198(3), 967-972). […] Binding assays provide for each compound tested a mean IC50 value of 2-5 separate experiments performed in duplicate or triplicate. […] The NK3-antagonist activity of the compounds of the present invention is determined by their ability to inhibit senktide-induced contraction of the guinea-pig ileum (Maggi et al, 1990, Br. J. PharmacoL, 101, 996-1000) and rabbit isolated iris sphincter muscle (Hall et al., 1991, Eur. J. PharmacoL, 199, 9-14) and human NK3 receptors-mediated Ca^++ mobilization (Mochizuki et al, 1994, J. Bio. Chem., 269, 9651-9658). Guinea-pig and rabbit in-vitro functional assays provide for each compound tested a mean KB value of 3-8 separate experiments, where KB is the concentration of the individual compound required to produce a 2-fold rightward shift in the concentration-response curve of senktide. Human receptor functional assay allows the determination of the concentration of the individual compound required to reduce by 50% (IC50 values) the Ca^++ mobilization induced by the agonist NKB.

Ki [nM]	Compound
5.6	CCC(NC(=O)c1c(C)c(-c2ccccc2)nc2ccccc12)c1ccccc1 (stereo not shown) [Example 22]
8.8	CCC(NC(=O)c1c(OC)c(-c2ccccc2)nc2ccccc12)c1ccccc1 (stereo not shown) [Example 47]
12	CCc1c(-c2ccccc2)nc2ccccc2c1C(=O)NC(CC)c1ccccc1 (stereo not shown) [Example 48]
